# Publication PMC3904387 (ACS medicinal chemistry letters, 2013)
# Tests used:
# [1] = system: Madin-Darby canine kidney (MDCK) cells
# [2] = system: PR8 H1N1 infected MDCK cells; type: cell-based
SMILES,cytotoxicity (in words) [1],antiviral activity (in words) [2]
O=C(N/N=C\c1cccc(Cl)c1Cl)c1ccc(O)c(O)c1 [compound 6],cytotoxic,
Cc1ccccc1/C=N\NC(=O)c1ccc(O)c(O)c1 [compound 7],lacking cytotoxicity,lacking cytotoxicity and antiviral activity
COc1ccccc1N1CCN(/N=C/c2ccc(O)c(O)c2)CC1 [compound 8],cytotoxic,
C/C(=N/NC(=O)c1ccc(O)c(O)c1)c1ccc(C)cc1 [compound 9],lacks antiviral activity and cytotoxicity,lacks antiviral activity
O=C1CC2(CCCCC2)Oc2c1ccc(O)c2O [compound 11],lack cytotoxicity,lack cytotoxicity and antiviral activity
CC(=O)N1CCC2(CC1)CC(=O)c1ccc(O)c(O)c1O2 [compound 12],lack cytotoxicity,lack cytotoxicity and antiviral activity
O=C(Cc1ccccc1Cl)c1ccc(O)c(O)c1O [compound 14],neither cytotoxic,neither cytotoxic nor active against virally infected cells
